In US10253081B2, “Glucagon analogues” (Zealand Pharma A/S, priority 2012, dated 2019):
*1 amine or outer side, *2 acyl side, *3 side chain or, on linkers, in order; H or OH if unused. Where a SMILES comes first, the peptide text is derived from it. Side-chain parts run from the residue outwards. [ ]: non-standard residue; d: D form. The star is where a group is joined. γGlu = O=C(O)[C@H](CCC(=O)[*:2])N[*:1]; Palmitoyl = CCCCCCCCCCCCCCCC(=O)*; Aib = CC(C)(N)C(=O)O

Key:
[1] = molecular target: T1, human glucagon-like peptide 1 receptor (GLP-1R) (Homo sapiens, UniProt P43220); experiment: GLP-1 receptor efficacy assay (cAMP AlphaScreen, CHO cells); assay type: cell-based; conditions: Table 1A; for EC50: CHO cells expressing human GLP-1-R, cAMP, read-out: EC50 hGLP-1R CHO-K1; for Ratio GLP-1/Glucagon: EC50 [GLP-1R]/EC50 [Glucagon-R]
T1 construct: expressed in transfected cells
In short: (§1)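 Stably transfected CHO clones expressing human GLP-1R or glucagon receptor were treated with increasing peptide concentrations for 15 min at room temperature in KRBH containing 0.1 mM IBMX. After lysis, cAMP was quantified by AlphaScreen; EC50 and efficacy relative to GLP-1 or glucagon reference came from curve fitting.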

[2] = molecular target: T2, endogenous GLP-1 receptors (Mus musculus, UniProt O35659); experiment: Agonistic activity on endogenous GLP-1 receptor (cAMP, murine insulinoma cell line); assay type: cell-based; conditions: intracellular cAMP, 15 minutes at 26° C.; read-out: EC50 GLP-1R (murine insulinoma cells)
T2 construct: Agonistic activity of the test compounds on endogenous GLP-1 receptors; endogenous in cells
T2 sequence (O35659 22-463): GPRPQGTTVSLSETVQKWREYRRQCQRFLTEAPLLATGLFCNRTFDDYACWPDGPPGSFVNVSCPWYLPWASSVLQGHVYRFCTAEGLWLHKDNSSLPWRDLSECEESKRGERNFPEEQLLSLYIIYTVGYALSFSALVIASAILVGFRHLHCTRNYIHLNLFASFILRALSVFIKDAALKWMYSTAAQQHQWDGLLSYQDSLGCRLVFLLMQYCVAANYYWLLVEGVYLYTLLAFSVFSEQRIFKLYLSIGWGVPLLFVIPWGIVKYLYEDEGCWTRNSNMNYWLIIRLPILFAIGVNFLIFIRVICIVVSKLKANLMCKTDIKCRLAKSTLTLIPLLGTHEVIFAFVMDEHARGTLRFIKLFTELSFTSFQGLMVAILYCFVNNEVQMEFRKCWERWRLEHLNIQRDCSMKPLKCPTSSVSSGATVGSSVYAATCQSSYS
In short: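 Murine insulinoma cells were exposed 15 min at 26° C in KRBH with 0.1% DMSO to compound or GLP-1 ([…]), then cAMP was measured by AlphaScreen against a standard curve, in quadruplicate. pEC50 came from curve fits; % CTL was normalised to the maximal GLP-1 cAMP response.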

[3] = Oral glucose tolerance test (OGTT); assay type: in vivo, C57BL/6J mice; conditions: blood glucose AUC 0-120 min, 10 nmol/kg s.c. 4 h before oral glucose 2 g/kg
In short: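 Male C57BL/6J mice (n=7) were fasted for 10 h and given peptide at 10 nmol/kg s.c. in phosphate-buffered saline 4 h before an oral glucose bolus of 2 g/kg; controls got vehicle. Tail-blood glucose was read by glucometer up to 120 min, and AUC was computed by the trapezoidal rule without baseline correction.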

[4] = molecular target: T3, human glucagon receptor (Glucagon-R) (Homo sapiens, UniProt P47871); experiment: Glucagon receptor efficacy assay (cAMP AlphaScreen, CHO cells); assay type: cell-based; conditions: Table 1A; CHO cells expressing human Glucagon-R, cAMP; read-out: EC50 hGCGR CHO-K1
T3 construct: expressed in transfected cells
In short: as §1

T3 sequence (P47871 26-477): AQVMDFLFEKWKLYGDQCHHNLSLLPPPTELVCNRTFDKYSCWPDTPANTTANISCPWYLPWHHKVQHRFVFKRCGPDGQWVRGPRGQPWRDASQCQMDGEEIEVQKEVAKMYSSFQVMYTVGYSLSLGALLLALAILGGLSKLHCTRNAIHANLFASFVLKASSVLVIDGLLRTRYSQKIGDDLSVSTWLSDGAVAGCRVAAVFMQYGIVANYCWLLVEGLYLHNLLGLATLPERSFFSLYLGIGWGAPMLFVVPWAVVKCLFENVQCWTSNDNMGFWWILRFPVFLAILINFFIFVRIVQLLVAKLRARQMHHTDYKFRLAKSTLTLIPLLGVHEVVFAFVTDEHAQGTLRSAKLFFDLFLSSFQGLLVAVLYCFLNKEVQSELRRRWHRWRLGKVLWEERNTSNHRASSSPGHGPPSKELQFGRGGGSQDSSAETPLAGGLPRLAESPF
T1 sequence (P43220 24-463): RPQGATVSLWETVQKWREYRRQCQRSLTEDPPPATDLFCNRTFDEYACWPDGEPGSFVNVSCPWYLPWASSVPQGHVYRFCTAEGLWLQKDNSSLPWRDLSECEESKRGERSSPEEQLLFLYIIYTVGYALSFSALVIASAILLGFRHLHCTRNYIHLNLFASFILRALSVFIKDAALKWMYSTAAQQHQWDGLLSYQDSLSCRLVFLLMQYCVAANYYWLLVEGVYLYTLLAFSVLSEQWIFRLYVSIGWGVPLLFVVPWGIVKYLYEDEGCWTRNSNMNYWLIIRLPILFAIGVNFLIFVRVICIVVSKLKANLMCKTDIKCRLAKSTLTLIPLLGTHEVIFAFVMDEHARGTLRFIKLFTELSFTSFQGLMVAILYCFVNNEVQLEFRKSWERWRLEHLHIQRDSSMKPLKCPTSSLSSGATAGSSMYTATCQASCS

EC50 [1] | Ratio GLP-1/Glucagon [1] | EC50 [2] | EC50 [4] | SMILES | AUC (% Ctrl) [3]
0.51 nM | 0.52 | 1.06 nM | 0.98 nM | CCCCCCCCCCCCCCCC(=O)N[C@@H](CCC(=O)NCCCC[C@H](NC(=O)[C@H](CO)NC(=O)[C@H](CC(=O)O)NC(=O)[C@H](CC(C)C)NC(=O)[C@H](Cc1ccc(O)cc1)NC(=O)[C@H](CCCCN)NC(=O)[C@H](CO)NC(=O)[C@H](Cc1ccc(O)cc1)NC(=O)[C@H](CC(=O)O)NC(=O)[C@H](CO)NC(=O)[C@@H](NC(=O)[C@H](Cc1ccccc1)NC(=O)[C@@H](NC(=O)CNC(=O)[C@H](CCC(N)=O)NC(=O)C(C)(C)NC(=O)[C@@H](N)Cc1c[nH]cn1)[C@@H](C)O)[C@@H](C)O)C(=O)N[C@@H](C)C(=O)N[C@@H](C)C(=O)N[C@@H](Cc1c[nH]cn1)C(=O)N[C@@H](CC(=O)O)C(=O)N[C@@H](Cc1ccccc1)C(=O)N[C@H](C(=O)N[C@@H](CCC(=O)O)C(=O)N[C@@H](Cc1c[nH]c2ccccc12)C(=O)N[C@@H](CC(C)C)C(=O)N[C@@H](CC(C)C)C(=O)N[C@@H](CO)C(=O)N[C@@H](C)C(=O)O)C(C)C)C(=O)O [Compound 13, H-H-Aib-QGTFTSDYSKYLDS-K(Hexadecanoyl-isoGlu)-AAHDFVEWLLSA-OH] | 55 % Ctrl
0.53 nM | 0.98 | 0.72 nM | 0.54 nM | CCCCCCCCCCCCCCCC(=O)N[C@@H](CCC(=O)NCCCC[C@H](NC(=O)[C@H](CCC(=O)O)NC(=O)[C@H](CC(=O)O)NC(=O)[C@H](CC(C)C)NC(=O)[C@H](Cc1ccc(O)cc1)NC(=O)[C@H](CCCCN)NC(=O)[C@H](CO)NC(=O)[C@H](Cc1ccc(O)cc1)NC(=O)[C@H](CC(=O)O)NC(=O)[C@H](CO)NC(=O)[C@@H](NC(=O)[C@H](Cc1ccccc1)NC(=O)[C@@H](NC(=O)CNC(=O)[C@H](CCC(N)=O)NC(=O)C(C)(C)NC(=O)[C@@H](N)Cc1c[nH]cn1)[C@@H](C)O)[C@@H](C)O)C(=O)N[C@@H](CCCNC(=N)N)C(=O)N[C@@H](C)C(=O)N[C@@H](CCCCN)C(=O)N[C@@H](CC(=O)O)C(=O)N[C@@H](Cc1ccccc1)C(=O)N[C@H](C(=O)N[C@@H](CCC(=O)O)C(=O)N[C@@H](Cc1c[nH]c2ccccc12)C(=O)N[C@@H](CC(C)C)C(=O)N[C@@H](CC(C)C)C(=O)N[C@@H](CO)C(=O)N[C@@H](C)C(=O)O)[C@@H](C)CC)C(=O)O [Compound 14, H-H-Aib-QGTFTSDYSKYLDE-K(Hexadecanoyl-isoGlu)-RAKDFIEWLLSA-OH] (H-H[Aib]QGTFTSDYSKYLDEK([γGlu-Palmitoyl])RAKDFIEWLLSA-OH) | 59 % Ctrl
0.19 nM | 0.31 | 0.3 nM | 0.61 nM | CCCCCCCCCCCCCCCC(=O)N[C@@H](CCC(=O)NCCCC[C@H](NC(=O)[C@H](CCC(=O)O)NC(=O)[C@H](CC(=O)O)NC(=O)[C@H](CC(C)C)NC(=O)[C@H](Cc1ccc(O)cc1)NC(=O)[C@H](CCCCN)NC(=O)[C@H](CO)NC(=O)[C@H](Cc1ccc(O)cc1)NC(=O)[C@H](CC(=O)O)NC(=O)[C@H](CO)NC(=O)[C@@H](NC(=O)[C@H](Cc1ccccc1)NC(=O)[C@@H](NC(=O)CNC(=O)[C@H](CCC(N)=O)NC(=O)C(C)(C)NC(=O)[C@@H](N)Cc1c[nH]cn1)[C@@H](C)O)[C@@H](C)O)C(=O)N[C@@H](C)C(=O)N[C@@H](C)C(=O)N[C@@H](CCCCN)C(=O)N[C@@H](CC(=O)O)C(=O)N[C@@H](Cc1ccccc1)C(=O)N[C@H](C(=O)N[C@@H](CCC(=O)O)C(=O)N[C@@H](Cc1c[nH]c2ccccc12)C(=O)N[C@@H](CC(C)C)C(=O)N[C@@H](CCC(=O)O)C(=O)N[C@@H](CO)C(=O)N[C@@H](C)C(N)=O)[C@@H](C)CC)C(=O)O [Compound 15, H-H-Aib-QGTFTSDYSKYLDE-K(Hexadecanoyl-isoGlu)-AAKDFIEWLESA-NH2] | 42 % Ctrl
0.2 nM | 0.13 | 0.33 nM | 1.58 nM | CCCCCCCCCCCCCCCC(=O)N[C@@H](CCC(=O)NCCCC[C@H](NC(=O)[C@H](CO)NC(=O)[C@H](CC(=O)O)NC(=O)[C@H](CC(C)C)NC(=O)[C@H](Cc1ccc(O)cc1)NC(=O)[C@H](CCCCN)NC(=O)[C@H](CO)NC(=O)[C@H](Cc1ccc(O)cc1)NC(=O)[C@H](CC(=O)O)NC(=O)[C@H](CO)NC(=O)[C@@H](NC(=O)[C@H](Cc1ccccc1)NC(=O)[C@@H](NC(=O)CNC(=O)[C@H](CCC(N)=O)NC(=O)C(C)(C)NC(=O)[C@@H](N)Cc1c[nH]cn1)[C@@H](C)O)[C@@H](C)O)C(=O)N[C@@H](C)C(=O)N[C@@H](C)C(=O)N[C@@H](CCC(=O)O)C(=O)N[C@@H](CC(=O)O)C(=O)N[C@@H](Cc1ccccc1)C(=O)N[C@H](C(=O)N[C@@H](CCC(=O)O)C(=O)N[C@@H](Cc1c[nH]c2ccccc12)C(=O)N[C@@H](CC(C)C)C(=O)N[C@@H](CCC(=O)O)C(=O)N[C@@H](CO)C(=O)N[C@@H](C)C(N)=O)C(C)C)C(=O)O [Compound 16, H-H-Aib-QGTFTSDYSKYLDS-K(Hexadecanoyl-isoGlu)-AAEDFVEWLESA-NH2] (H-H[Aib]QGTFTSDYSKYLDSK([γGlu-Palmitoyl])AAEDFVEWLESA-NH2) | 44 % Ctrl
